Experimental data: ChEMBL document CHEMBL1153888, “Targeted intracellular protein degradation induced by a small molecule: En route to chemical proteomics” (Bioorg Med Chem Lett, 2008)
Calls of active or inactive are those of the source. The calls are words filed in the database; no cut-off is given here.

Tests used:
HeLa [1] = assay: Induction of intracellular protein degradation in human HeLa cells expressing androgen receptor assessed as decrease in total AR protein levels at 10 uM after 7 hrs by Western blot; assay type: functional, cell-based
HeLa [2] = assay: Inhibition of intracellular protein degradation in human HeLa cells expressing androgen receptor assessed as effect on total AR protein levels at 10 uM after 7 hrs by Western blot in presence of epoxomicin; assay type: functional, cell-based
[3] = biological target: E3 ubiquitin-protein ligase Mdm2 (Homo sapiens, UniProt Q00987); assay: Binding affinity to MDM2
Sequence of E3 ubiquitin-protein ligase Mdm2 (Q00987 whole entry): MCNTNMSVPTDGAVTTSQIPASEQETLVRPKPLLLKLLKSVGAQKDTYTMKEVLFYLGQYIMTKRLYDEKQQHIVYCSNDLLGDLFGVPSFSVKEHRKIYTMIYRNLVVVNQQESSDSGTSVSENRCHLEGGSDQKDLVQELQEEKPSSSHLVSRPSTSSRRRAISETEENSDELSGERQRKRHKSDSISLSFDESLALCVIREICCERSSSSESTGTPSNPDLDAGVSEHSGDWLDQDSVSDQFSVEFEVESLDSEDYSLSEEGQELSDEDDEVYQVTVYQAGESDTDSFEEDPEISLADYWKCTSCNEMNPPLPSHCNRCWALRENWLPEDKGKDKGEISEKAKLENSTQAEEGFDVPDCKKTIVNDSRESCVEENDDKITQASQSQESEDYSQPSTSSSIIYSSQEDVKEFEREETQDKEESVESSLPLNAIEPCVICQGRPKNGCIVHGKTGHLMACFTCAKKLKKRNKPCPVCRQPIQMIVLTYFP

Row | Compound | Activity (HeLa [1]) | Activity (HeLa [2]) | IC50 [3]
1 | COc1ccc(C2=N[C@H](c3ccc(Cl)cc3)[C@H](c3ccc(Cl)cc3)N2C(=O)N2CCN(CC(=O)NCCOCCOCCOCC(=O)Nc3ccc(OC[C@](C)(O)C(=O)Nc4ccc([N+](=O)[O-])c(C(F)(F)F)c4)cc3)C(=O)C2)c(OC(C)C)c1 | Active | Active | –
2 | COc1ccc(C2=NC(c3ccc(Cl)cc3)C(c3ccc(Cl)cc3)N2)c(OC(C)C)c1 (stereo not drawn) | – | – | 90 nM
